Experimental data published in PubChem BioAssay AID1117349.
Activity calls are given as the source filed them. No rule for the calls is given here.

Test system: HeLa cells, increased 2N DNA content (cell cycle)
Test: HeLa 2N DNA content increase, dose response, cell-based, IC50 (AID 1117349)

| SMILES | IC50 |
| --- | --- |
| Cc1ccc([N+](=O)[O-])[c]2c1[O][Hg]2 | > 10 µM (inactive) |
| CCCCCCCCCCCCCC[N+](C)(C)C | > 10 µM (inactive) |
| CCCCCCCCCCCC(=O)[O][Sn]([CH2]CCC)([CH2]CCC)[O]C(=O)CCCCCCCCCCC | > 10 µM (inactive) |
| C[n+]1c2cc(N)ccc2cc2ccc(N)cc21 (tested in a mixture with another compound) | 3.39 µM |
